Assay results published in paper PMC9688344, “[^225Ac]Ac-SibuDAB for Targeted Alpha Therapy of Prostate Cancer: Preclinical Evaluation and Comparison with [^225Ac]Ac-PSMA-617” (Cancers, 2022).
Where two headings read alike, the source gives them in different places.

Experiments:
[1] = tested on: PC3-PIP/flu tumor-bearing mice; test: Biodistribution studies; type: in vivo, BALB/c nude mice; conditions: 48 h p.i.
[2] = tested on: PSMA-positive PC-3 PIP tumor xenografts; test: Therapy study in PC-3 PIP tumor-bearing mice; type: in vivo, BALB/c nude mice; conditions: 10 MBq
Procedure: Five days after subcutaneous inoculation of four groups of mice with either PC-3 PIP or PC-3 flu tumor cells on the right shoulder (4 × 10^6 cells in 100 μL HBSS), the mice were intravenously injected with either vehicle only (saline with 0.05% BSA, n = 6 and n = 4, respectively) or with 30 kBq [^225Ac]Ac-SibuDAB (1 nmol per mouse; n = 4 per group) diluted in vehicle (Table 1).
After tumor cell inoculation, mice bearing PC-3 PIP tumor xenografts were intravenously injected with vehicle only (n = 6) or with [^225Ac]Ac-SibuDAB or [^225Ac]Ac-PSMA-617, respectively, applied at 5 kBq or 10 kBq (1 nmol per mouse; n = 6 per group; Table 1). The control group consisted of mice from several studies (n = 12 mice) and the data from this group were published previously.
After administration of the radioligands, the mice were monitored over 8 weeks using the same measures as previously published by Umbricht et al.. The relative body mass was defined as [BMx/BM0], where BMx is the body mass in grams at a given Day x and BM0 is the body mass in grams at Day 0. The tumor dimension was determined by measuring the longest tumor axis (L) and its perpendicular axis (W) with a digital caliper. The tumor volume (V) was calculated according to the equation [V = 0.5 × (LW^2)]. The relative tumor volume was defined as [TVx/TV0], where TVx is the tumor volume in mm^3 at a given Day x, and TV0 is the tumor volume in mm^3 at Day 0. Endpoint criteria that required euthanasia were defined as (i) body mass loss of >15%, (ii) a tumor volume of >800 mm^3, (iii) a combination of body mass loss of >10% and a tumor volume of >700 mm^3 or, (iv) signs of unease and pain or a combination thereof using a scoring system as previously reported. The median survival of mice of each group was assessed with Kaplan–Meier curves. Potential early side effects for mice that survived until study end were determined based on blood chemistry and organ-to-brain mass ratios on Day 56 by comparison to values obtained from an additional group of therapy-naïve mice (n = 4) without tumors but of the same age (Supplementary Material: Section S9).
Table S10. Biodistribution data and tumor-to-background ratios obtained in PC3-PIP/flu tumor-bearing mice 48 h after injection of [225Ac]Ac-SibuDAB, [177Lu]Lu-SibuDAB, [225Ac]Ac-PSMA-617 or [177Lu]Lu-PSMA-617. Decay-corrected data of accumulated activity are shown as [% IA/g]-values, representing the average ± SD.
Biodistribution data at 48 h p.i.
1 Data of [177Lu]Lu-PSMA-617 were previously published by Benešová et al., Mol Pharm 2018 [2]; Copyright 2018, American Chemical Society.
Purpose: In order to determine the therapeutic efficacy of [225Ac]Ac-SibuDAB in com-parison to [225Ac]Ac-PSMA-617 as well as the 177Lu-labeled counterparts, therapy studies were conducted in PC-3 PIP xenograft-bearing BALB/c nude mice.
Methods: The methods of the therapy study to assess the therapeutic efficacy of [225Ac]Ac-SibuDAB are reported in the main manuscript. An additional group of mice was treated with 10 MBq (1 nmol) [177Lu]Lu-SibuDAB under the same experimental condi-tions. Data previously acquired by our group for mice treated with 5 MBq [177Lu]Lu-SibuDAB were published by Borgna & Deberle et al. and data of mice treated with 5 MBq or 10 MBq [177Lu]Lu-PSMA-617 were previously published by Tschan et al. and Umbricht et al., respectively.
Results: The assessment of the PSMA-specific therapeutic effect of [225Ac]Ac-SibuDAB as well as the comparison to [225Ac]Ac-PSMA-617 are described in the main ar-ticle. The body mass of effectively treated mice, in which the tumor disappeared entirely […]
tumor-bearing mice that were treated with only vehicle as well as for some mice that were treated with 5 kBq or 10 kBq [225Ac]Ac-PSMA-617 and experienced a relapse in tumor

[3] = cited from earlier work
[4] = tested on: PSMA-positive PC-3 PIP cells; conditions: 4 h incubation; ref Borgna & Deberle et al., Mol Pharm 2022; cited from earlier work
PSMA = target: T1, PSMA (Homo sapiens, UniProt Q04609); conditions: ref Borgna & Deberle et al., Mol Pharm 2022; cited from earlier work
T1 construct: expressed in transfected cells; host or cells: PC-3 PIP prostate cancer cells (transduced to express PSMA), provided by Prof; Dr. Martin Pomper, Johns Hopkins University

[5] = tested on: PC3-PIP/flu tumor-bearing mice; conditions: ref Borgna & Deberle et al., Mol Pharm 2022, cited from earlier work
[6] = tested on: PSMA-positive PC-3 PIP tumor xenografts; set-up: method as in Borgna & Deberle et al., Mol Pharm 2022; conditions: 5 MBq, ref Borgna & Deberle et al., Mol Pharm 2022; cited from earlier work

T1 sequence (Q04609 whole entry): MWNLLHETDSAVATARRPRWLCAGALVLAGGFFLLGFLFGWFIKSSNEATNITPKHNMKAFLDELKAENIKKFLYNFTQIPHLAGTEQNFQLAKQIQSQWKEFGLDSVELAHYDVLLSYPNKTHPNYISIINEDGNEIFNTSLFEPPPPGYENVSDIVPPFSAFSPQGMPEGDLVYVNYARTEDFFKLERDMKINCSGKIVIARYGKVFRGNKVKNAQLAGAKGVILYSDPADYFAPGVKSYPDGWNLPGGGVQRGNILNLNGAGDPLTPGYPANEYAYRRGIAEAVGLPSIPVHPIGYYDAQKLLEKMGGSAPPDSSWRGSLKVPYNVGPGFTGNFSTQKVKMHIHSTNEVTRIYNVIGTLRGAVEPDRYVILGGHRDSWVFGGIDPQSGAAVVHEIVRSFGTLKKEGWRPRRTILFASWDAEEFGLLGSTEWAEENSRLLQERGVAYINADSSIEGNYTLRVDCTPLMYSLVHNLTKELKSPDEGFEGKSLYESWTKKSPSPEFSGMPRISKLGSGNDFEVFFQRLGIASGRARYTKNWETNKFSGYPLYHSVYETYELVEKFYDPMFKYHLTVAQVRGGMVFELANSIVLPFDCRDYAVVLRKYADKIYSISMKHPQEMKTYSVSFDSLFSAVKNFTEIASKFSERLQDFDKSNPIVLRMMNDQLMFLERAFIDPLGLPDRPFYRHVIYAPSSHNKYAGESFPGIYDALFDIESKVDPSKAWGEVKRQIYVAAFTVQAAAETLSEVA

CC(C)Cc1ccc(C(C)C(=O)NC(CCN)C(=O)NCCCCC(NC(=O)CN2CCN(CC(=O)[O-])CCN(CC(=O)[O-])CCN(CC(=O)[O-])CC2)C(=O)NCC2CCC(C(=O)NC(Cc3ccc4ccccc4c3)C(=O)NCCCCC(NC(=O)NC(CCC(=O)O)C(=O)O)C(=O)O)CC2)cc1.[177Lu+3] (stereo not shown) [[^177Lu]Lu-SibuDAB]
Blood, accumulated activity [1]: 0.27 ± 0.04 % IA/g
Bone, accumulated activity [1]: ≤ 0.10 % IA/g
Heart, accumulated activity [1]: 0.14 ± 0.02 % IA/g
Intestines, accumulated activity [1]: 0.10 ± 0.03 % IA/g
Kidneys, accumulated activity [1]: 3.5 ± 0.7 % IA/g
Liver, accumulated activity [1]: 0.44 ± 0.06 % IA/g
Lung, accumulated activity [1]: 0.33 ± 0.07 % IA/g
Muscle, accumulated activity [1]: 0.07 ± 0.02 % IA/g
PC-3 PIP tumor, accumulated activity [1]: 69 ± 12 % IA/g
PC-3 flu tumor, accumulated activity [1]: 0.30 ± 0.07 % IA/g
Salivary glands, accumulated activity [1]: 0.18 ± 0.05 % IA/g
Spleen, accumulated activity [1]: 0.43 ± 0.10 % IA/g
Stomach, accumulated activity [1]: 0.12 ± 0.06 % IA/g
Tumor-to-blood ratio [1]: 252 ± 24
Tumor-to-kidney ratio [1]: 20 ± 2
Tumor-to-liver ratio [1]: 157 ± 14
mice whose tumor xenografts disappeared completely without relapse until Day 56 [2]: five out of six
start of tumor regrowth in the other mice [2]: ~ 7 weeks
mice whose tumor xenografts disappeared completely without relapse until Day 56 ([2]; listed as [177Lu]Lu-SibuDAB): five out
logD value [3]: −2.3 ± 0.1
Cell uptake [4]: 53 ± 1%
Internalized fraction [4]: 15 ± 2%
Kd (PSMA): 27 nM
Blood, accumulated activity ([5]; 1 h p.i.): 17 ± 2 % IA/g
Bone, accumulated activity ([5]; 1 h p.i.): 2.1 ± 0.3 % IA/g
Heart, accumulated activity ([5]; 1 h p.i.): 5.3 ± 0.8 % IA/g
Intestines, accumulated activity ([5]; 1 h p.i.): 1.8 ± 0.3 % IA/g
Kidneys, accumulated activity ([5]; 1 h p.i.): 22 ± 5 % IA/g
Liver, accumulated activity ([5]; 1 h p.i.): 3.5 ± 0.6 % IA/g
Lung, accumulated activity ([5]; 1 h p.i.): 12 ± 2 % IA/g
Muscle, accumulated activity ([5]; 1 h p.i.): 1.9 ± 0.3 % IA/g
PC-3 PIP tumor, accumulated activity ([5]; 1 h p.i.): 38 ± 7 % IA/g
PC-3 flu tumor, accumulated activity ([5]; 1 h p.i.): 2.7 ± 0.4 % IA/g
Salivary glands, accumulated activity ([5]; 1 h p.i.): 3.5 ± 0.4 % IA/g
Spleen, accumulated activity ([5]; 1 h p.i.): 3.0 ± 0.4 % IA/g
Stomach, accumulated activity ([5]; 1 h p.i.): 1.5 ± 0.4 % IA/g
Tumor-to-blood ratio ([5]; 1 h p.i.): 2.3 ± 0.5
Tumor-to-kidney ratio ([5]; 1 h p.i.): 1.7 ± 0.3
Tumor-to-liver ratio ([5]; 1 h p.i.): 11 ± 2
Blood, accumulated activity ([5]; 4 h p.i.): 2.9 ± 1.9 % IA/g
Bone, accumulated activity ([5]; 4 h p.i.): 0.49 ± 0.27 % IA/g
Heart, accumulated activity ([5]; 4 h p.i.): 1.1 ± 0.7 % IA/g
Intestines, accumulated activity ([5]; 4 h p.i.): 0.46 ± 0.23 % IA/g
Kidneys, accumulated activity ([5]; 4 h p.i.): 12 ± 3 % IA/g
Liver, accumulated activity ([5]; 4 h p.i.): 1.3 ± 0.5 % IA/g
Lung, accumulated activity ([5]; 4 h p.i.): 3.1 ± 2.8 % IA/g
Muscle, accumulated activity ([5]; 4 h p.i.): 0.39 ± 0.22 % IA/g
PC-3 PIP tumor, accumulated activity ([5]; 4 h p.i.): 66 ± 11 % IA/g
PC-3 flu tumor, accumulated activity ([5]; 4 h p.i.): 0.95 ± 0.71 % IA/g
Salivary glands, accumulated activity ([5]; 4 h p.i.): 0.82 ± 0.43 % IA/g
Spleen, accumulated activity ([5]; 4 h p.i.): 1.1 ± 0.6 % IA/g
Stomach, accumulated activity ([5]; 4 h p.i.): 0.49 ± 0.29 % IA/g
Tumor-to-blood ratio ([5]; 4 h p.i.): 49 ± 51
Tumor-to-kidney ratio ([5]; 4 h p.i.): 5.5 ± 1.5
Tumor-to-liver ratio ([5]; 4 h p.i.): 61 ± 29
Blood, accumulated activity ([5]; 24 h p.i.): 0.26 ± 0.08 % IA/g
Bone, accumulated activity ([5]; 24 h p.i.): 0.11 ± 0.04 % IA/g
Heart, accumulated activity ([5]; 24 h p.i.): 0.15 ± 0.05 % IA/g
Intestines, accumulated activity ([5]; 24 h p.i.): 0.13 ± 0.06 % IA/g
Kidneys, accumulated activity ([5]; 24 h p.i.): 4.3 ± 1.0 % IA/g
Liver, accumulated activity ([5]; 24 h p.i.): 0.54 ± 0.18 % IA/g
Lung, accumulated activity ([5]; 24 h p.i.): 0.31 ± 0.10 % IA/g
Muscle, accumulated activity ([5]; 24 h p.i.): ≤ 0.10 % IA/g
PC-3 PIP tumor, accumulated activity ([5]; 24 h p.i.): 62 ± 18 % IA/g
PC-3 flu tumor, accumulated activity ([5]; 24 h p.i.): 0.38 ± 0.09 % IA/g
Salivary glands, accumulated activity ([5]; 24 h p.i.): 0.18 ± 0.05 % IA/g
Spleen, accumulated activity ([5]; 24 h p.i.): 0.40 ± 0.13 % IA/g
Stomach, accumulated activity ([5]; 24 h p.i.): 0.12 ± 0.06 % IA/g
Tumor-to-blood ratio ([5]; 24 h p.i.): 247 ± 34
Tumor-to-kidney ratio ([5]; 24 h p.i.): 14 ± 1
Tumor-to-liver ratio ([5]; 24 h p.i.): 117 ± 14
mice whose tumor xenografts disappeared completely without relapse until Day 56 [6]: two out of six
start of tumor regrowth in the other mice [6]: ~ 4 weeks
